This note sets out measurements from patent US20230416329A1, “A PEPTIDE WITH DISULFIDE BONDS AND INHIBITORY ACTIVITY AGAINST SERINE PROTEASES, DERIVED HYBRID PEPTIDES THEREOF, AND USES THEREOF” (INSTITUTE OF MATERIA MEDICA , CHINESE ACADEMY OF MEDICAL …, priority 2020, published 2023).

This experiment has as its target porcine pancreatic elastase (Sus scrofa, UniProt P00772). Kind of experiment: Elastase inhibitory activity of peptides (AAApNA hydrolysis; IC50, Ki, residual activity). It counts as biochemical. As to conditions: for IC50 / Residual activity of elastase: elastase 0.5 μM, AAApNA 1 mM. As for the experimental part: The inhibition constants of various synthetic active peptide inhibitors (molecular scaffolds) against seine proteases were measured. The substrates N-succinyl-Ala-Ala-Pro-Phe-p-nitroaniline (AAPFpNA), Nα—Benzoyl-L-arginine-4-nitroaniline hydrochloride (BApNA) and N-succinyl-[…] (AAApNA) are used in competitive binding reaction to determine the inhibitory activities against α-chymotrypsin, bovine trypsin, and porcine pancreatic elastase, respectively. Experiments for α-chymotrypsin and bovine trypsin inhibition were measured in 20 mM CaCl2, 50 mM Tris-HCl buffer (pH 7.8), and that for porcine elastase inhibition was measured in 50 mM Tris-HCl buffer (pH 8.0). The concentration of the peptide was measured using optical density (OD) at 280 nm. The Michaelis constant (Km) of the enzyme hydrolysis substrate is calculated from the initial rate of substrate hydrolysis at 405 nm. The absorbance value of the substrate was measured at 405 nm after complete hydrolysis. All data were processed using nonlinear regression.
• (1) Added a total 198 μL of reaction buffer (20 mM CaCl2, 50 mM Tris-HCl (pH 8.0)) into the 96 well plate, followed by preheating at 37° C. for 15 min. Then added 2 μL of different concentrations of substrates (pNA, dissolved in DMSO), and mixed by centrifugation at 500 rpm for 1 min. Finally, the plate was incubated at 37° C. for 30 min, and the absorbance value at 405 nm was measured. In the 200 μL of reaction system, the final concentrations of pNA were 0, 0.025, 0.05, 0.075, 0.1, 0.125, 0.15, 0.175, and 0.2 mM, respectively. Make three repetitions for each concentration and plot the OD405 m value with pNA concentration to obtain the standard curve. • (2) Added a total 190 μL of reaction buffer (20 mM CaCl2, 50 mM Tris-HCl (pH 8.0)) and 8 μL of 4.375 μM elastase into the 96 well plate, followed by preheating at 37° C. for 5 min. Then added 2 μL of different concentrations of substrates (AAApNA, dissolved in DMSO), and mixed by centrifugation at 500 rpm for 1 min. Finally, the plate was incubated at 37° C. for 30 min, and the absorbance value at 405 nm was measured. In the 200 μL of reaction system, the final concentrations of AAApNA were 0, 0.125, 0.166, 0.2, 0.25, 0.33, 0.6, 0.75, and 1.25 mM, respectively. Make three repetitions for each concentration and plot the OD405 nm value with time to obtain the corresponding curve. Divide the slope of the curve by the slope of the standard curve and the enzyme concentration to obtain the initial velocity V0 (mM/(min*mM protein). Plot the initial velocity V0 with the concentration of substrate AAApNA using Prism software, and the Michaelis constant Km value of elastase hydrolyzing AAApNA was obtained.
• (1) Added a total 190 μL of different concentrations of peptides (ECs) against elastase and reaction buffer (20 mM CaCl2, 50 mM Tris-HCl buffer (pH 8.0)) into the pre-cold 96 well plate, followed by preheating at 37° C. for 5 min and centrifugated at 500 rpm for 1 min and allowed to stand for 4 minutes. Then added 8 μL of 12.5 μM elastase and incubated at 37° C. for 10 min and centrifugated at 500 rpm for 1 min and allowed to stand for 9 minutes. Finally, added 2 μL of 100 mM AAApNA, and mixed by centrifugation at 500 rpm for 1 min. The plate was incubated at 37° C. for 60 min, and the absorbance value at 405 nm was measured. Three repetitions were made, and only reaction buffer and substrate were added in the blank control as the minimum absorption value (Min OD405 nm); Only reaction buffer, enzyme and substrate were added in the negative control as the maximum absorption value (Max OD405 nm). • (2) In the 200 μL of reaction system, the final concentrations of elastase and AAApNA were 0.5 μM and 1 mM, respectively. • (3) Data statistics
Residual activity of enzyme (%)=(1−(Max OD405 nm−Sample OD405 nm)/(Max OD405 nm−Min OD405 nm))*100 […]

Where two headings read alike, the source gives them in different places. Bridge positions count the residues as written; N and C are the ends. Peptide text beside a SMILES is read from it. Where only a bound is given, the exact number is not on record here.

porcine pancreatic elastase, sequence (P00772 27-266): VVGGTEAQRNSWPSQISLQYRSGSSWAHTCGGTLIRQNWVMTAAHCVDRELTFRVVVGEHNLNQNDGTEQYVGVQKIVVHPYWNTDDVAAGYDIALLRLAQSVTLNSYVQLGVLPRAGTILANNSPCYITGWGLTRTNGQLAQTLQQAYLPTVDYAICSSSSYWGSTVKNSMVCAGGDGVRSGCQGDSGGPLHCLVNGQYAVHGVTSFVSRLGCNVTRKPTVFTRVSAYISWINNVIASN

The IC50 is the concentration that gives 50% inhibition. In turn, `CC[C@H](C)[C@@H]1NC(=O)CNC(=O)[C@@H](N)CSSC[C@@H](C(=O)N[C@@H](CCC(N)=O)C(=O)O)NC(=O)[C@H]([C@@H](C)CC)NC(=O)[C@@H]2CCCN2C(=O)[C@@H]2CCCN2C(=O)[C@H]([C@@H](C)CC)NC(=O)[C@H](CO)NC(=O)[C@H](C)NC(=O)[C@H]([C@@H](C)O)NC(=O)[C@H](CCCCN)NC1=O` [EC42] (H-CGIKTASIPPICQ-OH; disulfide 1-12) came in with an IC50 of over 50 µM.

Usually Ki stands for a measure of affinity in units of concentration, obtained from inhibition or displacement. `CC[C@H](C)[C@@H]1NC(=O)[C@@H]2CCCN2C(=O)[C@@H]2CCCN2C(=O)[C@H]([C@@H](C)CC)NC(=O)[C@H](CO)NC(=O)[C@H](C)NC(=O)[C@H]([C@@H](C)O)NC(=O)[C@@H](NC(=O)[C@@H](N)C(C)C)CSSC[C@@H](C(=O)N[C@@H](CCC(N)=O)C(=O)O)NC1=O` [EC22] (H-VCTASIPPICQ-OH; disulfide 2-10; C-terminus assumed): the IC50 is 0.4 µM. Further, the “Residual activity of elastase” value (peptide 0.001 μM) is 100.1 ± 1.0%. Further, the “Residual activity of elastase” value (peptide 0.01 μM) is given as 99.8 ± 0.3%. Further, the “Residual activity of elastase” value (peptide 0.1 μM) turned out to be 92.0 ± 6.8%. Further, the “Residual activity of elastase” value (peptide 0.2 μM) amounted to 70.8 ± 4.3%. The “Residual activity of elastase” value (peptide 0.4 μM) came to 51.6 ± 1.7%. Also, the “Residual activity of elastase” value (peptide 1 μM) is recorded as 20.4 ± 1.2%. The “Residual activity of elastase” value (peptide 10 μM) worked out at 2.4 ± 0.2%. For the same compound, where the note is “peptide 100 μM”, the “Residual activity of elastase” value is listed as 0.0 ± 0.0%. In addition, the “Residual activity of elastase” value (peptide 1000 μM) is given as −0.2 ± 0.2%. Further, the Ki (read-out: Ki) came to 0.11 µM.

`CC[C@H](C)[C@@H]1NC(=O)[C@H](CO)NC(=O)[C@H](C)NC(=O)[C@H]([C@@H](C)O)NC(=O)[C@H](C)NC(=O)[C@H](Cc2ccc(O)cc2)NC(=O)CNC(=O)[C@@H](N)CSSC[C@@H](C(=O)N[C@@H](Cc2ccc(O)cc2)C(=O)O)NC(=O)[C@H](CCC(N)=O)NC(=O)[C@@H]2CCCN2C(=O)[C@@H]2CCCN2C1=O` [EC15] (H-CGYATASIPPQCY-OH; disulfide 1-12; N-terminus and C-terminus assumed) gave an IC50 of over 50 µM.

Turning to `CC[C@H](C)[C@@H]1NC(=O)[C@H](CO)NC(=O)[C@H](C)NC(=O)[C@H]([C@@H](C)O)NC(=O)[C@H](CCC(=O)O)NC(=O)[C@H](CCCNC(=N)N)NC(=O)CNC(=O)[C@@H](N)CSSC[C@@H](C(=O)O)NC(=O)CNC(=O)[C@H](CCCCN)NC(=O)[C@H](CCC(N)=O)NC(=O)[C@@H]2CCCN2C(=O)[C@@H]2CCCN2C1=O` [EC11] (H-CGRETASIPPQKGC-OH; disulfide 1-14; N-terminus and C-terminus assumed), the IC50 is over 50 µM.

In turn, `CC[C@H](C)[C@@H]1NC(=O)[C@H](CO)NC(=O)[C@H](C)NC(=O)[C@H]([C@@H](C)O)NC(=O)[C@H](C)NC(=O)[C@H](CC(C)C)NC(=O)[C@@H](N)CSSC[C@@H](C(=O)N[C@@H](Cc2ccc(O)cc2)C(=O)O)NC(=O)[C@H](CCC(N)=O)NC(=O)[C@@H]2CCCN2C(=O)[C@@H]2CCCN2C1=O` [EC5] (H-CLATASIPPQCY-OH; disulfide 1-11; N-terminus and C-terminus assumed) had an IC50 of over 50 µM.

`CC[C@H](C)[C@@H]1NC(=O)CNC(=O)[C@@H](N)CSSC[C@@H](C(=O)N[C@@H](CCC(N)=O)C(=O)O)NC(=O)[C@H]([C@@H](C)CC)NC(=O)[C@@H]2CCCN2C(=O)[C@@H]2CCCN2C(=O)[C@H]([C@@H](C)CC)NC(=O)[C@H](CO)NC(=O)[C@H](C)NC(=O)[C@H]([C@@H](C)O)NC(=O)[C@H](C)NC1=O` [EC30] (H-CGIATASIPPICQ-OH; disulfide 1-12) showed an IC50 of over 50 µM.

As to `CC[C@H](C)[C@H](N)C(=O)N[C@H]1CSSC[C@@H](C(=O)N[C@@H](CCC(N)=O)C(=O)O)NC(=O)[C@H]([C@@H](C)CC)NC(=O)[C@@H]2CCCN2C(=O)[C@@H]2CCCN2C(=O)[C@H]([C@@H](C)CC)NC(=O)[C@H](CO)NC(=O)[C@H](C)NC(=O)[C@H]([C@@H](C)O)NC1=O` [EC23] (H-ICTASIPPICQ-OH; disulfide 2-10; C-terminus assumed), the “Residual activity of elastase” value is, setting by setting: (peptide 0.001 μM) 103.0 ± 2.2%; (peptide 0.01 μM) 97.8 ± 4.8%; (peptide 0.1 μM) 76.8 ± 3.1%; (peptide 0.2 μM) 56.4 ± 2.9%; (peptide 0.4 μM) 40.8 ± 2.0%; (peptide 0.6 μM) 23.7 ± 0.2%. Further, the “Residual activity of elastase” value is, setting by setting: (peptide 1 μM) 15.1 ± 0.9%; (peptide 10 μM) 1.5 ± 0.3%; (peptide 100 μM) −0.2 ± 0.1%; (peptide 1000 μM) −0.2 ± 0.1%. Besides, under “read-out: Ki against elastase”, the Ki was 0.07 µM.

Regarding `CC[C@H](C)[C@@H]1NC(=O)[C@@H]2CCCN2C(=O)[C@@H]2CCCN2C(=O)[C@H]([C@@H](C)CC)NC(=O)[C@H](CO)NC(=O)[C@H](C)NC(=O)[C@H]([C@@H](C)O)NC(=O)[C@@H](NC(=O)[C@@H](N)Cc2ccc(O)cc2)CSSC[C@@H](C(=O)N[C@@H](CCC(N)=O)C(=O)O)NC1=O` [EC29] (H-YCTASIPPICQ-OH; disulfide 2-10; C-terminus assumed), the “Residual activity of elastase” value by setting is: (peptide 0.001 μM) 105.9 ± 2.2%; (peptide 0.01 μM) 102.0 ± 2.9%; (peptide 0.1 μM) 92.6 ± 2.7%; (peptide 0.5 μM) 72.7 ± 4.4%; (peptide 1 μM) 47.5 ± 0.7%; (peptide 2 μM) 28.5 ± 0.4%. Moreover, the “Residual activity of elastase” value is 8.9 ± 0.4% (peptide 6 μM), 5.9 ± 0.4% (peptide 10 μM), 0.1 ± 0.1% (peptide 100 μM) and 0.1 ± 0.0% (peptide 1000 μM).

`CC[C@H](C)[C@@H]1NC(=O)CNC(=O)[C@@H](N)CSSC[C@@H](C(=O)N[C@@H](CCC(N)=O)C(=O)O)NC(=O)[C@H]([C@@H](C)CC)NC(=O)[C@@H]2CCCN2C(=O)[C@@H]2CCCN2C(=O)[C@H]([C@@H](C)CC)NC(=O)[C@H](CO)NC(=O)[C@H](C)NC(=O)[C@H]([C@@H](C)O)NC(=O)[C@H](Cc2c[nH]cn2)NC1=O` [EC40] (H-CGIHTASIPPICQ-OH; disulfide 1-12) displayed an IC50 of over 50 µM.

As to `CC[C@H](C)[C@@H]1NC(=O)CNC(=O)[C@@H](N)CSSC[C@@H](C(=O)N[C@@H](CCC(N)=O)C(=O)O)NC(=O)[C@H]([C@@H](C)CC)NC(=O)[C@@H]2CCCN2C(=O)[C@@H]2CCCN2C(=O)[C@H]([C@@H](C)CC)NC(=O)[C@H](CO)NC(=O)[C@H](C)NC(=O)[C@H]([C@@H](C)O)NC(=O)[C@H](CC(N)=O)NC1=O` [EC38] (H-CGINTASIPPICQ-OH; disulfide 1-12; C-terminus assumed), the IC50 worked out at 1 µM.

Compound `CC[C@H](C)[C@@H]1NC(=O)CNC(=O)[C@@H](N)CSSC[C@@H](C(=O)N[C@@H](CCC(N)=O)C(=O)O)NC(=O)[C@H]([C@@H](C)CC)NC(=O)[C@@H]2CCCN2C(=O)[C@@H]2CCCN2C(=O)[C@H]([C@@H](C)CC)NC(=O)[C@H](CO)NC(=O)[C@H](C)NC(=O)[C@H]([C@@H](C)O)NC(=O)[C@H](Cc2ccccc2)NC1=O` [EC36] (H-CGIFTASIPPICQ-OH; disulfide 1-12) showed an IC50 of over 50 µM.
